Laboratory results reported in patent US7037907B1 (The University of Melbourne, priority 1999, dated 2006).
Where “and” joins values, the source holds several entries; their conditions need not be identical. Equal entries are not always repeated.

What was measured:
[1] = molecular target: purified E. Coli-derived β-glucuronidase (Escherichia coli, UniProt P05804); experiment: Susceptibility of 2-MEG to metabolism by E. Coli β-glucuronidase (HPLC); type: in vitro ADME; conditions: incubation with E. Coli β-glucuronidase for 16 hours in Tyrodes buffer
Sequence of purified E. Coli-derived β-glucuronidase (P05804 whole entry): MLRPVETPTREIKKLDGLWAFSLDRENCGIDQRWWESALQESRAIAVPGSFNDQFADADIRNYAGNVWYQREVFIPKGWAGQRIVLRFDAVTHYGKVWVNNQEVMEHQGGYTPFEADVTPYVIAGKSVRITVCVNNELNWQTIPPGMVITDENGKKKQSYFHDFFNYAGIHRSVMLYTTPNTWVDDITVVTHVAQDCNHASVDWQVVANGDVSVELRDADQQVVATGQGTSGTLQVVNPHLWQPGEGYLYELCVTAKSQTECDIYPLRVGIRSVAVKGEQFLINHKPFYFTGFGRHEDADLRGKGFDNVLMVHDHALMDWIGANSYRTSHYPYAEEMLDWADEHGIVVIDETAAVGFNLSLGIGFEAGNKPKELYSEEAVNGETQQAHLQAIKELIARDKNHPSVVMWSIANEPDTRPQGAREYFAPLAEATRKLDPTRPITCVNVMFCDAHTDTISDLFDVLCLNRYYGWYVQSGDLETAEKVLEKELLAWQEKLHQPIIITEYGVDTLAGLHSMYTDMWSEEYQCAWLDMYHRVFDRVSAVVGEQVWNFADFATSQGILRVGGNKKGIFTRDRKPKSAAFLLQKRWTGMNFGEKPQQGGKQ
Description: (§2) At the end of these incubation periods, extraction was carried out by using 100 μl of reaction mixture with 200 μl of acetontrile (ACN) followed by the addition of 5 μl 2M HCL, vortexing and centrifugation at 1500 g (ambient temperature). Samples of enzyme incubates or quality control incubates were then chilled at −20° C. for at least 10 min, prior to removal of 120 μl of the upper (ACN) phase which is added to 120 μl distilled H2O. One hundred μl of this extract was injected into a Hewlett Packard Series 1050 HPLC fitted with a C18 analytical column (Hypersil ODS 3 μM, 4.6×150 mm) guarded by a pre column (Alltech Hypersil ODS 3 μM; 4.6×7.6 mm) and metabolites were detected with a Hewlett Packard 1046A fluorescence detector (I excitation 270 nm, emission, 320 nm). Metabolites were separated in a mobile phase of ACN buffer of 40:60 (buffer comprised 20 mM NaH2 PO4, 0.02% orthophosphoric acid, pH 3.1–3.2) at a flow rate of 0.7 ml/min. for the first 4 min with a linear gradient to a mobile phase of ACN: buffer (76:24) at 4.5 min. which was maintained for the remainder of the separation (10 min).

[2] = system: Human Airway Smooth Muscle cells; experiment: Human airway smooth muscle cell number; type: cell-based; conditions: compound 10 μM
Source text: (§1) Human airway fibroblasts were obtained from volunteers in a follow-up of the Melbourne Epidemiological Survey of Childhood Asthma (MESCA) (Oswald et al., 1994) initially recruited at age 7 in 1965 and now 42 years old. Volunteers underwent bronchial biopsy which provided tissue samples of epithelium and mucosa of approximately 2 mm^3. These specimens were dissected to remove the epithelium and placed in plastic culture plates. Fibroblasts grew by explant culture over a six week period when maintained according to previously described methods (Zhang et al., 1996). Cells were seeded at subconfluent densities onto six cell plates and after 72 hours were rendered quiescent by serum deprivation. Twenty four hours after serum removal, cells were exposed to thrombin (0.3 U/ml) together with a serum-free medium supplement containing insulin, transferrin and selenium. Cells were harvested by incubation with Trypsin (0.5% w/v) for 10 min. or until a single cell suspension was produced. Cell numbers were then determined using a haemocytometer.
Smooth muscle cells were obtained from airways resected from lung transplant recipients and cultured as previously described in detail (Fernandes et al., 1999). Cell numbers were determined in experiments of the same design as those described for human airway fibroblasts with the additional stimulus of 1% (v/v) fetal calf serum (FCS) being evaluated. In addition, [^3H]-thymidine incorporation was determined between 24 and 28 hours after the addition of thrombin to determine DNA synthesis (Fernandes et al. 1999).

[3] = system: Airway smooth muscle cells; experiment: Shape change of cultured airway smooth muscle cells; type: cell-based, human; conditions: 72 hours in culture, 5% FCS, 10 micro M
A549 cells = experiment: A549 cell DNA synthesis ([3H]-thymidine); type: cell-based; conditions: 5% fetal calf serum, 10 micromolar, [3H]-thymidine 24 hours after addition
Description: A549 cells were maintained in DMEM containing 5% fetal calf serum and undergoing asynchronous proliferation. DNA synthesis was determined by the addition of [3H]-thymidine 24 hours after the addition of one of 2-methoxyestradiol, 6-oxo-2-methoxyestradiol and 2-methoxyestradiol-17β-D-glucuronide.

[4] = Source text: The octanol:water partition co-efficient is a measure of the relative aqueous and lipid solubility of a compound.
[5] = incubation with rat renal homogenates for 5.5 hours in Tyrodes buffer
Description: as §2

[6] = molecular target: T1, estrogen receptor (rat uterine cytosol) (Rattus norvegicus, UniProt P06211)
T1 sequence (P06211 1-600): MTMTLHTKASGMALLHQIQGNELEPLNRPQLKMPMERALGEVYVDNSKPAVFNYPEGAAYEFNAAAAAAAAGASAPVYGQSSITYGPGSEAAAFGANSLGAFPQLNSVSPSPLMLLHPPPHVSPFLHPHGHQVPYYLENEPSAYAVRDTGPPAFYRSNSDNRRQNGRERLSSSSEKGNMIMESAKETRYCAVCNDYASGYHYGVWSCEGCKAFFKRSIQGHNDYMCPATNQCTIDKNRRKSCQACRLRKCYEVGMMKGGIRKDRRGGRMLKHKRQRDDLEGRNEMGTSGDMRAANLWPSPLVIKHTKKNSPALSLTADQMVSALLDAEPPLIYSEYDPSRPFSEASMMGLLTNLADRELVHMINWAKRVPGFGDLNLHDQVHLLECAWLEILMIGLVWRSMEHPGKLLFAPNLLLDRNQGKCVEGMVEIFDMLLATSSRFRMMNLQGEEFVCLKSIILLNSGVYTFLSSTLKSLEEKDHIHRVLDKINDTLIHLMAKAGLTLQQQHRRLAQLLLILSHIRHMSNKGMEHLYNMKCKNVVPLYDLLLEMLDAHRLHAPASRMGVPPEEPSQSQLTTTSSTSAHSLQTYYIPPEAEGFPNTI

Human airway fibroblasts = experiment: Human airway fibroblast cell number (haemocytometer); type: cell-based; conditions: stimulus Thrombin (0.3 U/ml), compound 10 μM
Source text: as §1

[7] = molecular target: T1, estrogen receptor (rat uterine cytosol); experiment: biochemical

| Compound | conversion of 2-MEG to 2-MEO [1] [%] | Cell Number (% control) ([2]; stimulus FCS (1%, v/v)) | Cell Number (% control) ([2]; stimulus Thrombin (0.3 U/ml)) | cell shape change [3] | effect on DNA synthesis (A549 cells) | octanol/water partition coefficient ([4]; 1-octanol/water, fluorescence spectroscopy) | aqueous solubility relative to 2-MEO ([4]; inferred from partition coefficients) | logP ([4]; octanol/water) | conversion of 2-MEG to 2-MEO [5] [%] | affinity for estrogen receptors relative to 2-MEO (from logIC50 values) ([6]; rat uterine cytosol, [3H]estradiol displacement) | Cell Number (% control) (Human airway fibroblasts) | displacement of [3H]estradiol at highest concentration ([6]; 10 μM displacer) | IC50 [7] [nM] |
| --- | --- | --- | --- | --- | --- | --- | --- | --- | --- | --- | --- | --- | --- |
| COc1cc2c(cc1O)CC[C@@H]1[C@@H]2CC[C@]2(C)[C@@H](O[C@@H]3O[C@H](C(=O)O)[C@@H](O)[C@H](O)[C@H]3O)CC[C@@H]12 [2-MEG, 2-Methoxyestradiol-17-b-D-glucopyranosiduronic acid] | ~20 | 47 ± 16, n = 5 % control | 29 ± 8, n = 12 % control | not detected | ineffective | 0.372 | approximately 25 times | −0.429 | ~6 | 1/50 | – | – | – |
| COc1cc2c(cc1O)CCC1C2CCC2(C)C(O)CCC12 (stereo not drawn) [2-MEO, 1,3,5(10)-estratriene-3,17βdiol 2 methyl ether, reference compound] | – | 25 ± 9, n = 5 % control | 14 ± 12, n = 10 % control | readily discernible shape change | reduce DNA synthesis significantly | – | – | – | – | – | 12±8 % control and 12 ± 8, n = 7 % control | incomplete response | ~100 |
| COc1cc2c(cc1O)C(=O)C[C@@H]1[C@@H]2CC[C@]2(C)[C@@H](O)CC[C@@H]12 [6-oxo-2-methoxyestradiol, 6-Oxo-2-methoxyestradiol] | – | – | – | – | reduce DNA synthesis significantly | – | – | – | – | – | – | – | – |
